Series [1] relates to CD8F1 spontaneous mammary adenocarcinoma. Nature of the series: TAU/uridine rescue with 5-FU alone in tumor-bearing mice (Example 5). Type of series: in vivo. As to the method: Sixty CD8F1 (BALB/C×[…]) female mice with first generation transplants of CD8F1 spontaneous mammary adenocarcinoma were treated with a weekly chemotherapy regimen which included a single dose of 5-FU (150 mg/kg) followed by various rescue strategies. The average tumor size was 157 mg at the start of the chemotherapy. The weekly chemotherapy course was completed three times.
In order to evaluate the various rescue therapies, the animals were divided into six groups of ten animals each as follows: […]

In series [2] the test system is hematopoietic system (AZT toxicity). Kind of series: Oral DAdC vs hematopoietic toxicity of i.p. AZT in DBA mice (Example 10). Type of series: in vivo, female DBA mice. As to the method:
AZT (100 mg/kg i.p.) was given three times daily at 9 a.m., 4 p.m., and at 10 p.m. to twenty-eight female DBA mice weighing approximately 20 grams each. Three times each day, at 9 a.m., 4 p.m., and 10 p.m., animals were treated with either water (control) or DAdC (411 mg/kg/treatment) by oral intubation. Treatment volume was 0.2 ml. One additional group of fourteen mice was not given AZT or any treatment (basal).
During the first few days of treatment a total of eight mice died from accidents occurring during oral administration of the water and DAdC. Therefore, the number of animals in the control group and the DAdC group were reduced on the days of sacrifice as follows: On day 6 there were four mice in the control group and five in the DAdC group; on day 13 there were seven in the control group and three in the DAdC group. The number of basal animals was seven at both time points.
On days six and thirteen blood (0.2–0.3 ml) was collected from mice in each group by retro-orbital bleeding into EDTA for subsequent differential blood cell counting, including reticulocytes. The animals were then sacrificed by cervical dislocation; their right femurs removed and the contents expelled for cell counting; and their spleens removed and weighed.

The subject of series [3] is hematopoietic system (Ara-C toxicity). Kind of series: DAdC or PdC vs hematopoietic toxicity of arabinosyl cytosine (Example 7). Type of series: in vivo, Balb/C female mice. Particulars: Ara-C 100 mg/kg i.p. daily for five days; DAdC 411 mg/kg p.o. or PdC 200 mg/kg i.p. twice daily. As to the method:
Twenty-one Balb/C female mice weighing approximately 20 grams each received a daily intraperitoneal injection of Ara-C (100 mg/kg) for five days. These mice were divided into three treatment groups: oral administration of water (controls); oral administration of DAdC (411 mg/kg/treatment); and intraperitoneal administration of PdC (200 mg/kg/treatment in 0.2% Tween 80). Mice were treated with either water, DAdC, or PdC twice daily, at 9 a.m. and 6 p.m. Treatment volume in each case was 0.2 ml. An additional seven mice received no Ara-C and no treatment at all (basals).
On days seven and eleven following 5-FU administration, blood (0.2–0.3 ml) was collected from the seven mice in each group by retro-orbital bleeding into EDTA for subsequent differential blood cell counting. Mice were sacrificed by cervical dislocation, and their spleens removed and weighed.

For series [4], the system named is hematopoietic system (AZT toxicity). Nature of the series: DAdC or THU vs hematopoietic damage by i.p. AZT in Balb/C mice (Example 11). Type of series: in vivo, female Balb/C mice. Particulars: for Total neutrophil counts: day thirteen, AZT + DAdC 300 mg/kg p.o. or THU […] i.p. three times daily. As to the method: AZT (100 mg/kg i.p.) was given three times daily at 9 a.m., 4 p.m., and 10 p.m. to twenty-one female Balb/C mice weighing approximately 20 grams each. […] Treatment volume was 0.2 ml. One group of seven mice was not given AZT or any treatment (basal).
On day thirteen blood (0.2–0.3 ml) was collected from mice in each group by retro-orbital bleeding-into EDTA for subsequent differential blood cell counting, including reticulocytes. The animals were then sacrificed by cervical dislocation; their right femurs removed and the contents expelled for cell counting; and their spleens removed and weighed.

Series [5] concerns hematopoietic system (5-FU toxicity). Nature of the series: Acyl derivatives of uridine i.p. vs bone marrow toxicity of 5-FU (Example 3). Type of series: in vivo, female Balb/C mice. The settings on record: for Spleen weights: day eleven after 5-FU, in mg; for HCT % / Lym / Neut / RBC / WBC: eleven days after 5-FU; for Spleen weight: day seven after 5-FU 150 mg/kg i.p., i.p. doses equimolar to uridine 300 mg/kg/treatment. As to the method:
Ninety-eight female Balb/C mice weighing approximately 20 grams each were given a one-time 150 mg/kg injection (i.p.) of 5-FU at 1 p.m. on the initial day of the study. […] All of these doses are equimolar, and were administered in a volume of 0.4 ml by i.p. injection. The groups were treated at 3:30, 6:00, and 8:30 p.m. on the initial day with their respective agents. […] On days seven and eleven following 5-FU administration, blood (0.2–0.3 ml) was collected from seven mice in each group by retro-orbital bleeding into EDTA for subsequent differential blood cell counting. Mice were sacrificed by cervical dislocation; their right femurs removed and the contents expelled for cell counting; and their spleens removed and weighed.

The test system is the same in series [6]. Kind of series: Octanoyluridine vs hematological toxicity of 5-FU (Example 3A). Type of series: in vivo, Balb/C female mice. The settings on record: seven days after 5-FU 75 mg/kg i.p.; Oct-U 100 mg/kg/treatment i.p. On the procedure:
Fourteen Balb/C female mice weighing approximately 20 grams each were given a one-time 75 mg/kg i.p. injection of 5-FU at 11:00 a.m. on the initial day of the study. Half of these animals were subsequently treated with Oct-U (100 mg/kg/treatment, i.p.), while the other half (controls) were injected with physiological saline. Administration of Oct-U and saline occurred at 2:30, 4:30, and 7:00 p.m. on the initial day, and at 9:30 a.m., 12:00 noon, 2:30, and 5:00 p.m the following day. An additional group of seven mice (basals) received no 5-FU and no treatments.

Series [7] can be described thus: Toxicity of oral tegafur with TAU or uracil: body weight and blood cell counts (Example 13). Type of series: in vivo, mice. Particulars: alone or with uracil or TAU 4:1 molar. On the procedure:
Triacetyluridine (TAU), like other acyl derivatives of uridine and cytidine of the invention, is converted to uridine and uracil during and after absorption into the bloodstream; when present at the same time as 5-FU, both uridine and uracil are capable of potentiating 5-FU cytotoxicity. Therefore, the cytotoxicity of oral tegafur+uracil versus tegafur+TAU was assessed. Blood cell counts were utilized as an index of cytotoxicity of 5-FU in the circulation (and by extension, of antitumor potency). Body weight loss was used as an index of gastrointestinal toxicity.
Three groups of mice received tegafur by oral intubation in a dose of 400 mg/kg per mouse. The initial body weight of mice in each group was 19.0±0.6 grams. One of these groups also received uracil in a molar ratio of 4:1 to the tegafur dose, and another group received TAU, also in a 4:1 molar ratio to tegafur. Body weights were monitored. Six days after tegafur administration, blood samples were taken for differential cell counts.
All drugs were administered orally in a single dose. Blood samples were taken for cell counts 6 days after drug administration; body weights were also recorded at this time.

[8] abbreviates: AZT for six days + oral DAdC 411 mg/kg/treatment.
[9] abbreviates: AZT for thirteen days + oral DAdC 411 mg/kg/treatment.
Where [10] appears, read: AZT for thirteen days + DAdC 300 mg/kg/treatment p.o.
The mark [11] stands for this setting: 6 days after single oral tegafur 400 mg/kg.
The mark [12] stands for this setting: day seven after 5-FU, equimolar i.p. doses.

As to `O=c1[nH]cc(F)c(=O)[nH]1` [5-FU, 5-fluorouracil], the Mortality is listed as 10/10 in series [1] (5-FU 150 mg/kg i.p. weekly x3 + vehicle (oil-water emulsion)) and 9/10 in series [1] (5-FU alone 150 mg/kg i.p. weekly x3, no rescue).
In the case of `CC(=O)OC[C@H]1O[C@@H](n2ccc(N)nc2=O)C[C@@H]1OC(C)=O` [DAdC, diacetyldeoxycytidine], in series [2] (setting [8]), the HCT is reported as 40.84 ± 1.35, the HGB is reported as 13.96 ± .40, the RBC is reported as 9.49 ± .32 and the Reticulocytes entry is listed as “.205 ± .075”. For the same compound, in series [2] (setting [9]), the HCT turned out to be 41.53 ± 1.17, the HGB is on record as 13.97, the RBC is 9.16 ± .32 and the Reticulocytes result is “.814 ± .069”. For the same compound, in series [2] (day six, AZT 100 mg/kg i.p. three times daily + oral DAdC 411 mg/kg/treatment), the “reduction in bone marrow cellularity vs basals” value came to 2.5%. Besides, in series [2] (day thirteen, AZT + oral DAdC 411 mg/kg/treatment), the Platelet counts is on record as 769±32. In series [3], the Neut is on record as 0.42 ± .05 K/μl, the PLT was found to be 728 ± 64 K/μl, the Spleen came out at 87.8 ± 3.5 milligrams and the WBC was 5.00 ± .42 K/μl. Besides, in series [4] (AZT 100 mg/kg i.p. three times daily for thirteen days + DAdC 300 mg/kg/treatment p.o.), the RBC is 8.26 ± .13. Moreover, in series [4] (setting [10]), the HCT is listed as 39.51 ± 0.61, the HGB is reported as 14.97 ± .15 and the Retic. entry is “.059 ± .006”. Moreover, the Total neutrophil counts in series [4] is listed as 1.39±0.14.
On to `CCCCCCCC(=O)OCC1OC(n2ccc(=O)[nH]c2=O)C(O)C1O` (stereo not shown) [Oct-U], for which the “overall effect at the dose used” value in series [5] (after 5-FU, OU 455 mg/kg/treatment i.p.) is listed as “somewhat detrimental”. Moreover, in series [6], the Lym is recorded as 4.62 ± .29 thousands per microliter, the Marrow is 7.73 ± .68 thousands per microliter, the Neut is given as 1.19 ± .22 thousands per microliter and the PLT was 1243 ± 59 K/μl. In addition, in series [6], the RBC is reported as 8.13 ± .14 M/μl, the Spleen weight worked out at 87.2 ± 3.7 mg and the WBC is recorded as 5.96 ± .47 thousands per microliter.
`O=C1NC(O)CCN1[C@@H]1O[C@H](CO)[C@@H](O)[C@H]1O` (stereo partly shown) [THU, Tetrahydrouridine, reference compound]: in series [4], the Total neutrophil counts was 1.16±0.15.
For `O=c1[nH]c(=O)n(C2CCCO2)cc1F` (stereo not shown) [Tegafur], in series [7] (setting [11]), the Body weight turned out to be 18.2 ± 0.7 grams, the Neutrophils is 0.40 ± 0.085 K/μl and the Platelets is reported as 956 ± 30 K/μl. In addition, the “loss of body weight compared to untreated (basal) animals” value in series [7] (oral tegafur 400 mg/kg) was found to be 7%.
benzoyluridine [BU]: in series [5] (equimolar i.p. doses), the Spleen weights is reported as 126.9±12.3, the HCT % is 36.87 ± 0.6 %, the Lym is reported as 5.1 ± .4 K/μl and the Neut is on record as 1.04 K/μl. In addition, in series [5] (equimolar i.p. doses), the RBC is given as 7.62 ± .1 M/μl and the WBC was 6.20 ± .49 K/μl. In addition, the Platelet counts in series [5] (setting [12]) is listed as 829.6 ×10^3 per microliter.
On to ethoxycarbonyluridine [ECU], for which the Spleen weight in series [5] came to 75.7 ± 5.0 mg. In series [5] (setting [12]), the Lymphocyte counts is recorded as 7.19±0.32 ×10^3 per microliter and the “White blood cell counts” value was 7.26±0.31 ×10^3 per microliter. Moreover, in series [5] (equimolar i.p. doses), the HCT % amounted to 37.54 ± 1.0 %, the Lym is on record as 4.8 ± .5 K/μl, the Neut entry was “.66 ± K/μl” and the RBC is 7.65 ± .2 M/μl. Besides, the WBC in series [5] (equimolar i.p. doses) is recorded as 5.51 ± .64 K/μl.
As for palmitoyldeoxycytidine [PdC], in series [3], the Neut was 1.22 ± .27 K/μl, the PLT turned out to be 327 ± 30 K/μl, the Spleen amounted to 126.0 ± 5.3 milligrams and the WBC was 5.20 ± .35 K/μl.
Regarding valeryluridine [VU], in series [5] (equimolar i.p. doses), the Spleen weights was 139.4±8.0, the HCT % was found to be 38.31 ± 0.8 %, the Lym is listed as 5.2 ± .4 K/μl and the Neut result is recorded as “.97 ± K/μl”. In series [5] (equimolar i.p. doses), the RBC was 7.83 ± .1 M/μl and the WBC is listed as 6.31 ± .42 K/μl. The compound also displayed a Spleen weight in series [5] of 69.1 ± 1.7 mg. In series [5] (setting [12]), the Lymphocyte counts is reported as 6.42±0.49 ×10^3 per microliter, the Platelet counts was 825.7±26.7 ×10^3 per microliter, the Total neutrophil counts is 0.141±0.027 ×10^3 per microliter and the “White blood cell counts” value was 6.57±0.49 ×10^3 per microliter.

For the origin of these results see patent US7166581B1, “Treatment of chemotherapeutic agent and antiviral agent toxicity with acylated pyrimidine nucleosides” (Wellstat Therapeutics Corporation, priority 1987, dated 2007).
